Results reported in patent US8604016B2, “Heterocyclic inhibitors of glutaminase” (Calithera Biosciences Inc., priority 2011, dated 2013).

Molecular target: recombinant form of Glutaminase 1 (GAC) (Homo sapiens, UniProt O94925)
Assay: Recombinant Enzyme Assay (GAC coupled to GDH, NADH absorbance, no preincubation)
Type: biochemical
Conditions: no preincubation; read-out: GAC Delta N2 IC50 no preinc
Procedure: Enzymatic reaction was started with the addition of 50 μL of enzyme solution (50 mM Tris-HCl pH 8.0, 0.2 mM EDTA, 150 mM K2HPO4, 0.1 mg/ml BSA, 1 mM DTT, 10 ppm antifoam, 4 units/ml GDH, 4 mM adenosine diphosphate, and 4 nM GAC) and read in a Molecular Devices M5 plate reader at 20° C. The plate reader was configured to read absorbance (λ=340 nm) in kinetic mode for 15 minutes. Data was recorded as milli-absorbance units per minute and slopes were compared to a control compound and a DMSO-only control on the same plate. Compounds with slopes less than the DMSO control were considered inhibitors and plate variability was assessed using the control compound.

Compound | IC50 [nM]
N#Cc1cccc(CC(=O)Nc2nnc(CCSCCc3nnc(NC(=O)Cc4cccc(C#N)c4)s3)s2)c1 [Compound 155] | 270
COc1ccc(CC(=O)Nc2nnc(CCSCCc3nnc(NC(=O)Cc4ccc(OC)c(OC)c4)s3)s2)cc1OC [Compound 157] | 340
CS(=O)(=O)c1cccc(CC(=O)Nc2nnc(CCSCCc3nnc(NC(=O)Cc4cccc(S(C)(=O)=O)c4)s3)s2)c1 [Compound 158] | 220
COc1ccc(CC(=O)Nc2nnc(CCCCc3nnc(NC(=O)Cc4ccc(OC)c(OC)c4)s3)s2)cc1OC [Compound 160] | 160
COc1ccc(CC(=O)Nc2nnc(CCSCCc3nnc(NC(=O)Cc4ccc(OC)cc4)s3)s2)cc1 [Compound 161] | 150
CN(C)c1ccc(CC(=O)Nc2nnc(CCSCCc3nnc(NC(=O)Cc4ccc(N(C)C)cc4)s3)s2)cc1 [Compound 162] | 230
CN(C)c1ccc(CC(=O)Nc2nnc(CCCCc3nnc(NC(=O)Cc4ccc(N(C)C)cc4)s3)s2)cc1 [Compound 164] | 240
COCC(C(=O)Nc1nnc(CCCCc2nnc(NC(=O)C(COC)c3ccccc3)s2)s1)c1ccccc1 (stereo not shown) [Compound 165] | 510
O=C(Nc1nnc(CCCCc2nnc(NC(=O)C3(c4ccccc4)CCOCC3)s2)s1)C1(c2ccccc2)CCOCC1 [Compound 166] | 7400
O=C(Nc1nnc(CCCCc2nnc(NC(=O)C3(c4cccs4)CCOCC3)s2)s1)C1(c2cccs2)CCOCC1 [Compound 167] | 11000
O=C(Nc1nnc(CCCCc2nnc(NC(=O)C3(c4ccccc4)CC3)s2)s1)C1(c2ccccc2)CC1 [Compound 168] | 1300
O=C(Nc1nnc(CCCCc2nnc(NC(=O)[C@H](O)Cc3ccccc3)s2)s1)[C@H](O)Cc1ccccc1 [Compound 169] | 710
O=C(Nc1nnc(CCCc2nnc(NC(=O)C(O)Cc3ccccc3)s2)s1)C(O)Cc1ccccc1 (stereo not shown) [Compound 170] | 7400
CC(=O)OC(C(=O)Nc1nnc(CCCc2nnc(NC(=O)C(OC(C)=O)c3ccccc3)s2)s1)c1ccccc1 (stereo not shown) [Compound 171] | > 20000
O=C(Nc1nnc(CCCc2nnc(NC(=O)C(O)c3ccccc3)s2)s1)C(O)c1ccccc1 (stereo not shown) [Compound 172] | 1700
CC(=O)OC(C(=O)Nc1nnc(CCCCc2nnc(NC(=O)C(OC(C)=O)c3ccccc3)s2)s1)c1ccccc1 (stereo not shown) [Compound 173] | 24000
O=C(Nc1nnc(CCCCc2nnc(NC(=O)C(O)c3ccccc3)s2)s1)C(O)c1ccccc1 (stereo not shown) [Compound 174] | 290
N[C@H](C(=O)Nc1nnc(CCSCCc2nnc(NC(=O)[C@@H](N)c3ccccc3)s2)s1)c1ccccc1 [Compound 175] | 6300
O=C(Nc1nnc(CCCc2nnc(NC(=O)C(CO)c3ccccc3)s2)s1)C(CO)c1ccccc1 (stereo not shown) [Compound 176] | 570
O=C(CC(C(=O)O)c1ccccc1)Nc1nnc(CCCCc2nnc(NC(=O)CC(C(=O)O)c3ccccc3)s2)s1 (stereo not shown) [Compound 177] | 1100
COC(=O)C(CC(=O)Nc1nnc(CCCCc2nnc(NC(=O)CC(C(=O)O)c3ccccc3)s2)s1)c1ccccc1 (stereo not shown) [Compound 178] | 1500

Compound | IC50 [nM]
O=C(CCC(C(=O)O)c1ccccc1)Nc1nnc(CCSCCc2nnc(NC(=O)CCC(C(=O)O)c3ccccc3)s2)s1 (stereo not shown) [Compound 179] | 3100
O=C(Nc1nnc(CCSCCc2nnc(NC(=O)c3ccccc3CO)s2)s1)c1ccccc1CO [Compound 180] | 8800
CS(=O)(=O)c1ccc(CC(=O)Nc2nnc(CCSCCc3nnc(NC(=O)Cc4ccc(S(C)(=O)=O)cc4)s3)s2)cc1 [Compound 182] | 580
O=C(Cc1ccc(C(F)(F)F)cc1)Nc1nnc(CCSCCc2nnc(NC(=O)Cc3ccc(C(F)(F)F)cc3)s2)s1 [Compound 183] | > 20000
CC(C)(C)c1ccc(CC(=O)Nc2nnc(CCSCCc3nnc(NC(=O)Cc4ccc(C(C)(C)C)cc4)s3)s2)cc1 [Compound 184] | > 20000
CC(C)(C)OC(=O)Nc1ccc(CC(=O)Nc2nnc(CCSCCc3nnc(NC(=O)Cc4ccc(NC(=O)OC(C)(C)C)cc4)s3)s2)cc1 [Compound 185] | > 20000
O=C(Nc1nnc(CCSCCc2nnc(NC(=O)C3Cc4cc(Cl)ccc4O3)s2)s1)C1Cc2cc(Cl)ccc2O1 (stereo not shown) [Compound 189] | 4400
O=C(Nc1nnc(CCCCc2nnc(NC(=O)C(CO)c3cccs3)s2)s1)C(CO)c1cccs1 (stereo not shown) [Compound 190] | 250
CC(C)(C)c1ccc(CC(=O)Cc2nnc(CCCCc3nnc(NC(=O)Cc4ccc(C(C)(C)C)cc4)s3)s2)cc1 [Compound 191] | > 20000
O=C(Cc1cc2ccccc2o1)Cc1nnc(CCSCCc2nnc(NC(=O)Cc3cc4ccccc4o3)s2)s1 [Compound 193] | 3400
O=C(Cc1cc2ccccc2o1)Nc1nnc(CCCCc2nnc(NC(=O)Cc3cc4ccccc4o3)s2)s1 [Compound 194] | 10000
Nc1ccc(CC(=O)Nc2nnc(CCSCCc3nnc(NC(=O)Cc4ccc(N)cc4)s3)s2)cc1 [Compound 195] | 300
Nc1ccc(CC(=O)Nc2nnc(CCCCc3nnc(NC(=O)Cc4ccc(N)cc4)s3)s2)cc1 [Compound 196] | 190
O=C(CN1C(=O)OC[C@@H]1c1ccccc1)Nc1nnc(CCSCCc2nnc(NC(=O)CN3C(=O)OC[C@@H]3c3ccccc3)s2)s1 [Compound 197] | 6900
NS(=O)(=O)c1ccc(CC(=O)Nc2nnc(CCCCc3nnc(NC(=O)Cc4ccc(S(N)(=O)=O)cc4)s3)s2)cc1 [Compound 198] | 180
O=C(Cc1ccccc1)Nc1nnc(CCSCc2nnc(NC(=O)Cc3ccccc3)s2)s1 [Compound 199] | 120
Cn1cc(CC(=O)Nc2nnc(CCSCCc3nnc(NC(=O)Cc4cn(C)c5ccccc45)s3)s2)c2ccccc21 [Compound 200] | 610
Cn1cc(CC(=O)Nc2nnc(CCCCc3nnc(NC(=O)Cc4cn(C)c5ccccc45)s3)s2)c2ccccc21 [Compound 201] | 2700
COCCOC(C(=O)Nc1nnc(CCCCc2nnc(NC(=O)C(OCCOC)c3ccccc3)s2)s1)c1ccccc1 (stereo not shown) [Compound 203] | 1700
COCC(C(=O)Nc1nnc(CCSCCc2nnc(NC(=O)C(COC)c3ccccc3)s2)s1)c1ccccc1 (stereo not shown) [Compound 204] | 920
O=C(Cc1ccc(Cl)s1)Nc1nnc(CCSCCc2nnc(NC(=O)Cc3ccc(Cl)s3)s2)s1 [Compound 206] | > 20000

Compound | IC50 [nM]
O=C(Cc1cc2ccccc2s1)Nc1nnc(CCSCCc2nnc(NC(=O)Cc3cc4ccccc4s3)s2)s1 [Compound 207] | 13000
C=CCC(C(=O)Nc1nnc(CCCCc2nnc(NC(=O)C(CC=C)c3ccccc3)s2)s1)c1ccccc1 (stereo not shown) [Compound 209] | > 20000
O=C(Nc1nnc(CCCCc2nnc(NC(=O)[C@@H](O)c3ccccc3Cl)s2)s1)[C@@H](O)c1ccccc1Cl [Compound 210] | 380
O=C(Nc1nnc(CCCCc2nnc(NC(=O)C(O)c3cccc(F)c3F)s2)s1)C(O)c1cccc(F)c1F (stereo not shown) [Compound 211] | 1200
O=C(Cc1csc2ccccc12)Nc1nnc(CCSCCc2nnc(NC(=O)Cc3csc4ccccc34)s2)s1 [Compound 212] | > 20000
O=C(Cn1ccc2ccccc21)Nc1nnc(CCSCCc2nnc(NC(=O)Cn3ccc4ccccc43)s2)s1 [Compound 213] | 2500
NCCC(C(=O)Nc1nnc(CCSCCc2nnc(NC(=O)C(CN)c3ccccc3)s2)s1)c1ccccc1 (stereo not shown) [Compound 214] | 820
O=C(Nc1nnc(CCSCCc2nnc(NC(=O)c3cc4ccccc4o3)s2)s1)c1cc2ccccc2o1 [Compound 215] | 16000
N#Cc1ccc(CC(=O)Nc2nnc(CCSCCc3nnc(NC(=O)Cc4ccc(C#N)cc4)s3)s2)cc1 [Compound 216] | 890
NS(=O)(=O)c1ccc(CC(=O)Nc2nnc(CCSCCc3nnc(NC(=O)Cc4ccc(S(N)(=O)=O)cc4)s3)s2)cc1 [Compound 217] | 240
O=C(Nc1nnc(CCSCCc2nnc(NC(=O)c3coc4ccccc34)s2)s1)c1coc2ccccc12 [Compound 218] | > 20000
COc1ccccc1CC(=O)Nc1nnc(CCSCCc2nnc(NC(=O)Cc3ccccc3OC)s2)s1 [Compound 219] | 170
COC(=O)C(C(=O)Nc1nnc(CCCCc2nnc(NC(=O)C(C(=O)OC)c3ccccc3)s2)s1)c1ccccc1 (stereo not shown) [Compound 220] | 1600
O=C(Cc1coc2ccccc12)Nc1nnc(CCSCCc2nnc(NC(=O)Cc3coc4ccccc34)s2)s1 [Compound 221] | > 20000
O=C(Cc1coc2ccccc12)Nc1nnc(CCCCc2nnc(NC(=O)Cc3coc4ccccc34)s2)s1 [Compound 222] | > 20000
CC1(C)O[C@H](C(=O)Nc2nnc(CCCCc3nnc(NC(=O)[C@H]4OC(C)(C)O[C@@H]4c4ccccc4)s3)s2)[C@@H](c2ccccc2)O1 [Compound 224] | > 20000
O=C(Nc1nnc(CCCCc2nnc(NC(=O)[C@H](O)[C@@H](O)c3ccccc3)s2)s1)[C@H](O)[C@@H](O)c1ccccc1 [Compound 225] | > 20000
O=C(Nc1nnc(CCCCc2nnc(NC(=O)[C@@H](O)[C@H](O)c3ccccc3)s2)s1)[C@@H](O)[C@H](O)c1ccccc1 [Compound 226] | 2300
Nc1nnc(CCCCc2nnc(NC(=O)C(CO)c3ccccc3)s2)s1 (stereo not shown) [Compound 227] | 9900
O=C(CCN1CCOCC1)OCC(C(=O)Nc1nnc(CCCCc2nnc(NC(=O)C(CO)c3ccccc3)s2)s1)c1ccccc1 (stereo not shown) [Compound 228, 3-((5-{4-[5-(3-hydroxy-2-phenylpropanamido)-1,3,4-thiadiazol-2-yl]butyl}-1,3,4-thiadiazol-2-yl)amino)-3-oxo-2-phenylpropyl 3-morpholinopropanoate] | 570
O=C(Nc1nnc(CCCCc2nnc(NC(=O)c3ccnn3-c3ccccc3)s2)s1)c1ccnn1-c1ccccc1 [Compound 229] | 3900

Same assay, conditions: read-out: GAC Delta N2 IC50 no preinc

Compound | IC50 [nM]
O=C(Cc1ccccc1CO)Nc1nnc(CCCCc2nnc(NC(=O)Cc3ccccc3CO)s2)s1 [Compound 208] | 170
